Measured values taken from patent US4278612A, “2-Chloro-2-alkyl substituted peroxyesters” (priority 1979, dated 1981).

Test: Half-life data for 2-chloro-2-alkyl substituted peroxyesters (0.2M in Benzene)
Assay type: physicochemical
Conditions: for Half-Life: 200000 µM
From the text: The following Table III illustrates the desirable half lifes obtainable with compositions of this invention:
HALF-LIFE DATA FOR SELECTED 2-CHLORO-2-ALKYL
SUBSTITUTED PEROXYESTERS (0.2M in Benzene)

SMILES | 10 Hr Half-Life Temp | Half-Life (55 °C.) | Half-Life (65 °C.) | Half-Life (75 °C.) | Half-Life (80 °C.) | Half-Life (47.5 °C.) | Half-Life (50 °C.)
CCCCC(Cl)(CC)C(=O)OOC(C)(C)C (stereo not drawn) [TBPCEH, t-Butyl peroxy 2-chloro-2-ethyl hexanoate] | 56.2 °C | 11.55 h | 3.72 h | 1.16 h | 0.68 h |  | 
CCC(Cl)(CC)C(=O)OOC(C)(C)CC(C)(C)C [TMBPCEB, 1,1,3,3 Tetramethylbutylperoxy-2-chloro-2-ethylbutyrate] |  | 9.00 h | 2.38 h |  |  | 23.22 h | 16.84 h
